PubChem BioAssay (NCI)
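48-hour exposure; five concentrations; linearly interpolated endpoints. TGI denotes the concentration required for complete inhibition of growth.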

Assays:
Experiment in all cases: NCI tumour cell line growth inhibition, 48 h
TK-10 renal = test system: TK-10 renal
MCF7 breast = test system: MCF7 breast
HCT-116 colon = test system: HCT-116 colon
HOP-18 NSCLC = test system: HOP-18 NSCLC
LOX IMVI melanoma = test system: LOX IMVI melanoma
SNB-78 CNS = test system: SNB-78 CNS
M14 melanoma = test system: M14 melanoma
MDA-N = test system: MDA-N
ACHN renal = test system: ACHN renal
SK-OV-3 ovarian = test system: SK-OV-3 ovarian
SF-268 CNS = test system: SF-268 CNS
COLO 205 colon = test system: COLO 205 colon
DMS 273 small cell lung = test system: DMS 273 small cell lung
MDA-MB-231 breast = test system: MDA-MB-231 breast
786-0 renal = test system: 786-0 renal
HT29 colon = test system: HT29 colon
OVCAR-8 ovarian = test system: OVCAR-8 ovarian
DU-145 prostate = test system: DU-145 prostate
DMS 114 small cell lung = test system: DMS 114 small cell lung
RXF 393 renal = test system: RXF 393 renal
SK-MEL-5 melanoma = test system: SK-MEL-5 melanoma
SNB-19 CNS = test system: SNB-19 CNS
NCI-H23 lung = test system: NCI-H23 lung
SR leukemia = test system: SR leukemia
P388/ADR leukemia = test system: P388/ADR leukemia
M19-MEL melanoma = test system: M19-MEL melanoma
NCI-H460 lung = test system: NCI-H460 lung
MOLT-4 leukemia = test system: MOLT-4 leukemia
KM12 colon = test system: KM12 colon
OVCAR-3 ovarian = test system: OVCAR-3 ovarian
HCC-2998 colon = test system: HCC-2998 colon
UACC-257 melanoma = test system: UACC-257 melanoma
SNB-75 CNS = test system: SNB-75 CNS
U251 CNS = test system: U251 CNS
SK-MEL-2 melanoma = test system: SK-MEL-2 melanoma
OVCAR-5 ovarian = test system: OVCAR-5 ovarian
RPMI-8226 leukemia = test system: RPMI-8226 leukemia
OVCAR-4 ovarian = test system: OVCAR-4 ovarian
SF-539 CNS = test system: SF-539 CNS
P388 leukemia = test system: P388 leukemia
IGROV1 ovarian = test system: IGROV1 ovarian
HL-60(TB) leukemia = test system: HL-60(TB) leukemia
A549 NSCLC = test system: A549 NSCLC
EKVX NSCLC = test system: EKVX NSCLC
NCI-H226 lung = test system: NCI-H226 lung
MDA-MB-435 = test system: MDA-MB-435
SW-620 colon = test system: SW-620 colon
HOP-62 NSCLC = test system: HOP-62 NSCLC
HCT-15 colon = test system: HCT-15 colon
PC-3 prostate = test system: PC-3 prostate
SN12C renal = test system: SN12C renal
HS 578T breast = test system: HS 578T breast
CAKI-1 renal = test system: CAKI-1 renal
NCI-H522 lung = test system: NCI-H522 lung
A498 renal = test system: A498 renal
BT-549 breast = test system: BT-549 breast
SN12K1 renal = test system: SN12K1 renal
MALME-3M melanoma = test system: MALME-3M melanoma
HOP-92 NSCLC = test system: HOP-92 NSCLC
CCRF-CEM leukemia = test system: CCRF-CEM leukemia
UO-31 renal = test system: UO-31 renal
K-562 leukemia = test system: K-562 leukemia
NCI/ADR-RES ovarian = test system: NCI/ADR-RES ovarian
XF 498 CNS = test system: XF 498 CNS
KM20L2 colon = test system: KM20L2 colon
SF-295 CNS = test system: SF-295 CNS
UACC-62 melanoma = test system: UACC-62 melanoma
T-47D breast = test system: T-47D breast
SK-MEL-28 melanoma = test system: SK-MEL-28 melanoma
DLD-1 colon = test system: DLD-1 colon

Cc1c2cnccc2c(C)c2c1c1ccccc1n2CCOC(=O)c1ccccc1
TGI (TK-10 renal): 40.9 µM | TGI (MCF7 breast): 44.1 µM | TGI (HCT-116 colon): 28.2 µM | TGI (HOP-18 NSCLC): > 100 µM | TGI (LOX IMVI melanoma): 33.7 µM | TGI (SNB-78 CNS): 85.4 µM | TGI (M14 melanoma): > 100 µM | TGI (MDA-N): > 100 µM | TGI (ACHN renal): 56.3 µM | TGI (SK-OV-3 ovarian): 25.5 µM | TGI (SF-268 CNS): 79.5 µM | TGI (COLO 205 colon): 47 µM | TGI (DMS 273 small cell lung): 18 µM | TGI (MDA-MB-231 breast): > 100 µM | TGI (786-0 renal): 28.6 µM | TGI (HT29 colon): 54.1 µM | TGI (OVCAR-8 ovarian): 26.9 µM | TGI (DU-145 prostate): > 100 µM | TGI (DMS 114 small cell lung): 30.6 µM | TGI (RXF 393 renal): 27.3 µM | TGI (SK-MEL-5 melanoma): 38.9 µM | TGI (SNB-19 CNS): 40.2 µM | TGI (NCI-H23 lung): 54.7 µM | TGI (SR leukemia): 45.9 µM | TGI (P388/ADR leukemia): 35.1 µM | TGI (M19-MEL melanoma): 31.8 µM | TGI (NCI-H460 lung): 16 µM | TGI (MOLT-4 leukemia): 25.4 µM | TGI (KM12 colon): > 98 µM | TGI (OVCAR-3 ovarian): 28.8 µM | TGI (HCC-2998 colon): 29.8 µM | TGI (UACC-257 melanoma): 42 µM | TGI (SNB-75 CNS): 44.7 µM | TGI (U251 CNS): 44.1 µM | TGI (SK-MEL-2 melanoma): 31.8 µM | TGI (OVCAR-5 ovarian): 69 µM | TGI (RPMI-8226 leukemia): 42 µM | TGI (OVCAR-4 ovarian): 49.3 µM | TGI (SF-539 CNS): 20.9 µM | TGI (P388 leukemia): 41.4 µM | TGI (IGROV1 ovarian): 42.7 µM | TGI (HL-60(TB) leukemia): 26 µM | TGI (A549 NSCLC): 43.1 µM | TGI (EKVX NSCLC): 47.9 µM | TGI (NCI-H226 lung): 70 µM | TGI (MDA-MB-435): > 100 µM | TGI (SW-620 colon): 53.7 µM | TGI (HOP-62 NSCLC): 31.5 µM | TGI (HCT-15 colon): 59.2 µM | TGI (PC-3 prostate): > 100 µM | TGI (SN12C renal): 21 µM | TGI (HS 578T breast): 84.6 µM | TGI (CAKI-1 renal): 28 µM | TGI (NCI-H522 lung): 31.1 µM | TGI (A498 renal): 32.2 µM | TGI (BT-549 breast): > 100 µM | TGI (SN12K1 renal): 26.6 µM | TGI (MALME-3M melanoma): 28.8 µM | TGI (HOP-92 NSCLC): 71.9 µM | TGI (CCRF-CEM leukemia): 64.4 µM | TGI (UO-31 renal): 15.3 µM | TGI (K-562 leukemia): 44.5 µM | TGI (NCI/ADR-RES ovarian): 33 µM | TGI (XF 498 CNS): 5.64 µM | TGI (KM20L2 colon): 50.5 µM | TGI (SF-295 CNS): 33 µM | TGI (UACC-62 melanoma): 34.8 µM | TGI (T-47D breast): > 100 µM | TGI (SK-MEL-28 melanoma): 47.2 µM | TGI (DLD-1 colon): 49.3 µM
